# According to article PMC12481576, “Barbituric Acid Derivatives as Covalent Inhibitors of Leishmania braziliensis Dihydroorotate Dehydrogenase” (Journal of Medicinal Chemistry, 2025):
# “And” between values parts separate entries of the source, which are not always exact repeats. Identical values can stand only once. Like-named read-outs stand apart in the source and are kept apart here.
# Columns and labels:
# [1] = Kinetic solubility assay in PBS pH 7.4; assay type: physicochemical; details: kinetic from dmso stock, 1% DMSO
# Procedure: The plate was incubated for 2 h at 25 °C. The precipitates on the incubation plate were removed by filtration and the filtrates were quantified by LC-MS/MS. Calibration curves were prepared for each compound by using 5–6 points. Samples were analyzed by UV–vis.
# [2] = Mouse liver microsome stability in the absence of cofactors (NCF); details: 60 min, no cofactor (NCF); for Raw data: analyte peak area, T=60 NCF: mouse liver microsomes, raw LC-MS area; for remaining at 1 h, 1 µM: mouse, microsomes, pH 7.4, % Remaining, T=60 NCF
# [3] = test system: Leishmania braziliensis promastigotes; test: Leishmanicidal activity, promastigote growth (SYBR Green, 72 h); assay type: cell-based, Leishmania (V.) braziliensis (MHOM/BR/1975/M2904); details: Leishmania braziliensis, L. braziliensis promastigotes, max 200 μM
# In short: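 Cultures at 4 × 10^6 parasites/mL were exposed 72 h to serially decreasing compound levels, top 200 μM, with final DMSO 0.5% and medium-only control.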
# [4] = Cell viability / cytotoxicity assay (PrestoBlue, 72 h); assay type: cell-based; details: human; THP-1 cell line, 72 h, max 200 μM; read-out: CC50
# In short: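 Viability was measured with PrestoBlue fluorescence (560/590 nm, 2 h) after 72 h compound exposure at 37 °C. Test concentrations descended from 200 μM. The THP-1 monocytes had first been differentiated with 150 ng/mL phorbol myristate acetate for 48 h, then rested 24 h.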
# [5] = Parallel artificial membrane permeability assay (PAMPA); details: for recovery at 6 h, 10 µM: PAMPA
# In short: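 Compounds at 10 μM final (5% DMSO) in PBS pH 7.4 in donor wells, PBS pH 7.4 acceptor, duplicate; incubated 6 h at room temperature. Donor, acceptor and initial donor (T0) concentrations quantified by LC-MS/MS.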
# in vitro = details: microsomes; for microsomal CLint at 1 μM / remaining at 5 min, 1 μM: male, CD1, mouse; for remaining at 5 min, 1 μM / remaining at 10 min, 1 µM / remaining at 20 min, 1 µM / remaining at 0.5 h, 1 µM / remaining at 1 h, 1 µM: pH 7.4, % Remaining; for remaining at 5 min, 1 μM: T=5 min; for remaining at 10 min, 1 µM / remaining at 20 min, 1 µM / remaining at 0.5 h, 1 µM / remaining at 1 h, 1 µM: mouse; for remaining at 10 min, 1 µM: T=10 min; for remaining at 20 min, 1 µM: T=20 min; for remaining at 0.5 h, 1 µM: T=30 min, 30 min; for remaining at 1 h, 1 µM: T=60 min, 60 min
# HsDHODH = target: T1, HsDHODH (Homo sapiens, UniProt Q02127); test: Selectivity assay: HsDHODH single-dose inhibition (DCIP reduction); assay type: biochemical
# T1 construct: made in house
# T1 sequence (Q02127 whole entry): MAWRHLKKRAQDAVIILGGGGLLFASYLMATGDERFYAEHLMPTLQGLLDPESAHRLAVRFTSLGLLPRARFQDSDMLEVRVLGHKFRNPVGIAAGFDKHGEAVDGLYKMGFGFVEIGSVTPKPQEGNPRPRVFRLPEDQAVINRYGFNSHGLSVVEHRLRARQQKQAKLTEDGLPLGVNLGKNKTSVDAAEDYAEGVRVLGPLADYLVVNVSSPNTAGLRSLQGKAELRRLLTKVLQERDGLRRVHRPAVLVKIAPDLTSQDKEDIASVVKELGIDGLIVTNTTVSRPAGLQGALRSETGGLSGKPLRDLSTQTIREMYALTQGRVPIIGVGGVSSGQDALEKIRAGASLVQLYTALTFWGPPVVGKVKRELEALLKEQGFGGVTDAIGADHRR
# In short: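 Single-dose format, run in triplicate: His-purified HsDHODH (20 nM final) started by adding reaction buffer, absorbance at 610 nm (DCIP) recorded for 60 s at 3-s intervals. Initial rates converted to percent of no-compound control activity.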
# [6] = for Raw data: analyte peak area, T=0: 0 min; for Raw data: analyte peak area, T=0 / Raw data: analyte peak area, T=5 / Raw data: analyte peak area, T=10 / Raw data: analyte peak area, T=20: raw LC-MS area; for Raw data: analyte peak area, T=5: 5 min; for Raw data: analyte peak area, T=10: 10 min; for Raw data: analyte peak area, T=20: 20 min
# [7] = n=1, mouse liver microsomes, n=1
# [8] = n=2, mouse liver microsomes, n=2
# [9] = average of n=2, 10µM, PBS pH 7.4/7.4, 6h at room temperature
# [10] = mouse liver microsomes, replicate 1 (left block)
# [11] = mouse liver microsomes, replicate 2 (right block)
compound,measurement,setting,value
"O=C1NC(=O)C(=Cc2ccc(N3CCOCC3)cc2[N+](=O)[O-])C(=O)N1 [2e, 5-(4-Morpholino-2-nitrobenzylidene)pyrimidine-2,4,6(1H,3H,5H)-trione]",solubility kinetic at 2 h,"[1]; 25 °C, pH 7.4, aqueous buffer, PBS pH 7.4, 200 μM test conc, 2 h at 25 °C",178 µM
same,solubility at 2 h,"[1]; aqueous buffer, PBS pH 7.4, 200 µM, 2 hours at 25°C",53.4 µg/mL
same,"Raw data: analyte peak area, T=60 NCF",[2]; replicate 1 (left block),19133
same,"Raw data: analyte peak area, T=60 NCF",[2]; replicate 2 (right block),18454
same,"remaining at 1 h, 1 µM",[2]; [7],100%
same,"remaining at 1 h, 1 µM",[2]; [8],93.1%
same,EC50,[3],17 ± 11 µM
same,CC50 at 72 h,[4],> 200 µM
same,Remarks (PAMPA),"[5]; 10µM, PBS pH 7.4/7.4, 6h at room temperature, LC-MS/MS",No peak detected in acceptor samples
same,"recovery at 6 h, 10 µM","[5]; pH 7.4, % Recovery n=1, replicate n=1, 10µM, PBS pH 7.4/7.4, 6h at room temperature",95.1%
same,"recovery at 6 h, 10 µM","[5]; pH 7.4, % Recovery n=2, replicate n=2, 10µM, PBS pH 7.4/7.4, 6h at room temperature",101%
same,"recovery at 6 h, 10 µM","[5]; pH 7.4, Avg % Recovery, average of n=2, 10µM, PBS pH 7.4/7.4, 6h at room temperature",98.2%
same,Avg Log Pe (cm/sec),[5]; [9],-9.4 cm/sec and -9.35 cm/sec
same,Avg Pe,[5]; [9],0.000444 ×10⁻⁶ cm/s
same,LogPe (cm/sec) n1,"[5]; replicate n1, calculation section, 10µM, PBS pH 7.4/7.4, 6h",-9.34 cm/sec
same,LogPe (cm/sec) n2,"[5]; replicate n2, calculation section, 10µM, PBS pH 7.4/7.4, 6h",-9.37 cm/sec
same,Pe (nm/sec) n=1,"[5]; replicate n=1, 10µM (5% DMSO), PBS pH 7.4/7.4, 6h at room temperature, LC-MS/MS",0.00461 nm/s
same,% Recovery n=1,"[5]; replicate n=1, 10µM, PBS pH 7.4/7.4, 6h at room temperature",95.05%
same,Pe (nm/sec) n=2,"[5]; replicate n=2, 10µM (5% DMSO), PBS pH 7.4/7.4, 6h at room temperature, LC-MS/MS",0.00426 nm/s
same,microsomal CLint at 1 μM,in vitro; pH 7.4,< 14.4 µL/min/mg
same,"remaining at 5 min, 1 μM",in vitro; [7],91.8%
same,"remaining at 5 min, 1 μM",in vitro; [8],103%
same,microsomal CLint at 1 μM,"in vitro; pH 7.4, mouse liver microsomes CLint, app, mouse liver microsomes, NADPH, 1 μM",< 14.4 µL/min/mg
same,"remaining at 10 min, 1 µM",in vitro; [7],96%
same,"remaining at 10 min, 1 µM",in vitro; [8],109%
same,"remaining at 20 min, 1 µM",in vitro; [7],83.8%
same,"remaining at 20 min, 1 µM",in vitro; [8],99.7%
same,"remaining at 0.5 h, 1 µM",in vitro; [7],85%
same,"remaining at 0.5 h, 1 µM",in vitro; [8],91.7%
same,"remaining at 1 h, 1 µM",in vitro; [7],87.6%
same,"remaining at 1 h, 1 µM",in vitro; [8],88.8%
same,activity at 100 µM,HsDHODH; read-out: Single dose (0h) % activity,80 ± 9%
same,activity at 100 µM,HsDHODH; read-out: Single dose (4h) % activity,86 ± 8%
same,"Calculated T-half (min), Average","[6]; mouse liver microsomes (CD1 male), 0.4 mg/ml protein, test conc 1 µM, average of n=1 and n=2",298.4 min
same,"Calculated T-half (min), n=1","[6]; mouse liver microsomes (CD1 male), 0.4 mg/ml protein, test conc 1 µM, replicate n=1",354.59 min and 354.6 min
same,"Calculated T-half (min), n=2","[6]; mouse liver microsomes (CD1 male), 0.4 mg/ml protein, test conc 1 µM, replicate n=2",242.28 min and 242.3 min
same,"Raw data: analyte peak area, T=0",[6]; [10],18699
same,"Raw data: analyte peak area, T=0",[6]; [11],19500
same,"Modified T-half (min), Average","[6]; mouse liver microsomes, 0.4 mg/ml, 1 µM, average, limited to T Half range 3.00 - […]",>120.0 min
same,"Raw data: analyte peak area, T=5",[6]; [10],18869
same,"Raw data: analyte peak area, T=5",[6]; [11],20171
same,"Raw data: analyte peak area, T=10",[6]; [10],18566
same,"Raw data: analyte peak area, T=10",[6]; [11],21617
same,"Raw data: analyte peak area, T=20",[6]; [10],17411
same,"Raw data: analyte peak area, T=20",[6]; [11],21071
same,mouse liver microsomes T-half,"[6]; mouse liver microsomes, NADPH, 1 μM",>120.0 min
